Common to all, as to format: functional
For experiment [1], the target named is T1, Neuropeptide Y receptor type 2 (Homo sapiens, UniProt P49146).
T1 sequence (P49146 whole entry): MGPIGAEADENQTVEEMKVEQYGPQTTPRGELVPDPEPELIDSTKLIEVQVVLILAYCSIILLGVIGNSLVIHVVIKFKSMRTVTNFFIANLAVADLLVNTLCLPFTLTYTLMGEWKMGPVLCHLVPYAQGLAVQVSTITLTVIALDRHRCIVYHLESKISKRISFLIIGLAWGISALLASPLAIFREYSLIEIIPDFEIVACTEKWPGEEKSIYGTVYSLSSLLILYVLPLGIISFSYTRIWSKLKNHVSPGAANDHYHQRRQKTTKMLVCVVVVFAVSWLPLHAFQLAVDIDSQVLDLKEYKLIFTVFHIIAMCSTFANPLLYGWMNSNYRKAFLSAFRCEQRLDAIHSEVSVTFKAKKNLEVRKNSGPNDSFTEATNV
Briefly: Fluorescence-based counterscreen for agonists of NPY-Y1: cell-based high-throughput dose response assay for agonists of NPY-Y2.

Experiment [2] concerns the target T2, Neuropeptide Y receptor type 1 (Homo sapiens, UniProt P25929).
T2 sequence (P25929 whole entry): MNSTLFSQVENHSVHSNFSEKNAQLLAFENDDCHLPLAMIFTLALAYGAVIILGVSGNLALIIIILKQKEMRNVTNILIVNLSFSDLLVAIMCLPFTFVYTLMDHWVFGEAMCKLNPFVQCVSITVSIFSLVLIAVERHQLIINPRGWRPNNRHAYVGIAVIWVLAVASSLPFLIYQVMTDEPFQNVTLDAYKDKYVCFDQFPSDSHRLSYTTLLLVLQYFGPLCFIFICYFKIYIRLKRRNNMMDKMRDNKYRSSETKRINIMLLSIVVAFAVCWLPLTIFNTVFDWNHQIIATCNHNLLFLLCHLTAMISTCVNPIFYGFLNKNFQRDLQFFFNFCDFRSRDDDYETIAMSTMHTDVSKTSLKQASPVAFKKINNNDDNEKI
Briefly: Fluorescence-based dose response cell-based high-throughput screening assay for agonists of NPY-Y1. [Related pubchem assays: 1697 (Screening assay (NPY-Y1 agonists).), 1359 (Screening assay (NPY-Y2 potentiators or agonists).), 1304 (Screening assay (NPY-Y1 potentiators or agonists).), 1704 (Screening assay (CNGC inhibitors).), 1791 (Summary AID.)].

Experiment [3] has as its system HEK293. Briefly: Fluorescence-based counterscreen for potentiators or agonists of NPY-Y1: cell-based high-throughput dose response assay for inhibitors of cyclic nucleotide gated ion channel (CNGC) activity. In this assay, the parental HEK293 cell line transfected with a cyclic-nucleotide gated ion channel (CNGC)-based cAMP sensor is used to measure inhibition of isoproterenol-induced CNGC …. The following applies: Homo sapiens. For orientation: The purpose of a counterscreen is to sort out artefacts and off-target activity.

Experiment [4] deals with Melanin-concentrating hormone receptor 1 (Homo sapiens, UniProt Q99705). As to the kind of experiment: Fluorescence-based counterscreen for antagonists of the G-protein coupled receptor 7 (GPR7): cell-based high throughput dose response assay to identify antagonists of the melanin-concentrating hormone receptor 1 (MCHR1).
Melanin-concentrating hormone receptor 1, sequence (Q99705 whole entry): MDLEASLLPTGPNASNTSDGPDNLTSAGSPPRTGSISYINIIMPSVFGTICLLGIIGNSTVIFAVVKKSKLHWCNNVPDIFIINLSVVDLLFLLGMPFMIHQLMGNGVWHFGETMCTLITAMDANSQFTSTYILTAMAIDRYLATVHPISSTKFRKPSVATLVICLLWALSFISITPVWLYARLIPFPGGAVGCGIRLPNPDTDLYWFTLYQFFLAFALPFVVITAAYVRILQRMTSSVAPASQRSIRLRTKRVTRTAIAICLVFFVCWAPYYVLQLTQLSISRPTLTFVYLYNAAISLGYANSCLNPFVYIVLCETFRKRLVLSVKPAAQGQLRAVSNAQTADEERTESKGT
Experiment [5] concerns the target Neuropeptides B/W receptor type 1 (Homo sapiens, UniProt P48145). Briefly: Fluorescence-based dose response cell-based high throughput screening assay to identify antagonists of the G-protein coupled receptor 7 (GPR7). [Related pubchem assays: 1952 (Screening assay (GPR7 antagonists).), 1880 (Summary AID.)].

Each structure is given as a SMILES string. Calls of active or inactive are those of the source. For most assays here, no stated cut-off is given here; in the data, active = IC50 of 10 µM or less and inactive = more.

Neuropeptides B/W receptor type 1, sequence (P48145 whole entry): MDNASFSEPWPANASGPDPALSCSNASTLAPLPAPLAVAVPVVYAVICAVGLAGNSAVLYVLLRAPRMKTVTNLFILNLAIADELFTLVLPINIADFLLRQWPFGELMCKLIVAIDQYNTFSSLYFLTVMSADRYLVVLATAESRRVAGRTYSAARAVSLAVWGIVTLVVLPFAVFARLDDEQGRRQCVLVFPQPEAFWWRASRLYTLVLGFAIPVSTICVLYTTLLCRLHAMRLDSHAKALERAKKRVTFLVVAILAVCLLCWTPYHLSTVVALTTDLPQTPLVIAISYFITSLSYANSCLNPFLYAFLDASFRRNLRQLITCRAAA

Regarding `O=C(Nc1ccncc1)c1ccc2c(c1)C(=O)N(C1CCCCC1)C2=O`, the EC50 in experiment [1] and in experiment [2] was > 35.4 µM (not active) in each case. In experiment [3], the IC50 is listed as > 35.4 µM (not active).
Regarding `COc1cc(/C=C(\C#N)C(=O)Nc2ccc(C(=O)O)cc2)ccc1OC(=O)c1cccc(F)c1`, the values for the IC50 in experiment [4] and in experiment [5] were 12 µM (not active) and 5.86 µM (active), respectively.

Broadly, the EC50 is the midpoint of the concentration-response curve. By IC50 is commonly meant the concentration needed to halve the response being measured.

Source of the values: ChEMBL document CHEMBL1201862, “PubChem BioAssay data set” (2004).
